Experimental data taken from patent US20020111274A1, “1-alkyl-3-[1-(substituted phenyl) benzotriazol-6-yl] uracils” (BASF Aktiengesellschaft, priority 2000, published 2002).

What was measured:
Design in all cases: scale not given here
[1] = test system: CHEAL Lambsquarters, Common; assay: Preemergence herbicidal evaluation, CHEAL; assay type: in vivo, Chenopodium album, L.; details: preemergence
Procedure, shortened: (§1)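 First, seed is blended with potting soil and sown over roughly an inch of soil per cup. Next, the surface is sprayed with an aqueous acetone solution delivering about 0.013–0.800 kg/ha. Finally, cups are grown in the greenhouse and rated after 4–5 weeks.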

[2] = test system: CASOB Sicklepod; assay: Preemergence herbicidal evaluation, CASOB; assay type: in vivo, Cassia obtusifolia, L.; details: preemergence
Procedure, shortened: as §1

[3] = test system: ZEAMX Corn, Field; assay: Postemergence herbicidal evaluation, ZEAMX; assay type: in vivo, Zea mays, L. (Sammel-Bezeichnung); details: postemergence spray, rated about two-three weeks after treatment
Procedure, shortened: (§2)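 Seedlings grown about two weeks were sprayed with compound in 80/20 acetone/water containing 1.0% methylated seed oil, at the equivalent of about 0.006 to 0.400 kg/ha, through a nozzle at 40 psi. Plants were kept in the greenhouse and rated visually about two to three weeks after treatment.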

[4] = test system: IPOHE Morningglory, Ivyleaf; assay: Preemergence herbicidal evaluation, IPOHE; assay type: in vivo, Ipomoea hederacea, (L.) Jacq.; details: preemergence
Procedure, shortened: as §1

[5] = test system: ECHOG Barnyardgrass; assay: Preemergence herbicidal evaluation, ECHOG; assay type: in vivo, Echinochloa crus-galli, (L.) Beau; details: preemergence
Procedure, shortened: as §1

[6] = test system: CASOB Sicklepod; assay: Postemergence herbicidal evaluation, CASOB; assay type: in vivo, Cassia obtusifolia, L.; details: postemergence spray, rated about two-three weeks after treatment
Procedure, shortened: as §2

[7] = test system: ABUTH Velvetleaf; assay: Preemergence herbicidal evaluation, ABUTH; assay type: in vivo, Abutilon theophrasti, Medic.; details: preemergence
Procedure, shortened: as §1

[8] = test system: ZEAMX Corn, Field; assay: Preemergence herbicidal evaluation, ZEAMX; assay type: in vivo, Zea mays, L. (Sammel-Bezeichnung); details: preemergence
Procedure, shortened: as §1

[9] = test system: GLXMAW Soybean, Williams; assay: Postemergence herbicidal evaluation, GLXMAW; assay type: in vivo, Glycine max, (L.) Merr. cv Williams; details: postemergence spray, rated about two-three weeks after treatment
Procedure, shortened: as §2

[10] = test system: TRZAWR Wheat, Winter, cv Riband; assay: Postemergence herbicidal evaluation, TRZAWR; assay type: in vivo, Triticum aestivum; details: postemergence spray, rated about two-three weeks after treatment
Procedure, shortened: as §2

[11] = test system: GLXMAW Soybean, Williams; assay: Preemergence herbicidal evaluation, GLXMAW; assay type: in vivo, Glycine max, (L.) Merr. cv Williams; details: preemergence
Procedure, shortened: as §1

[12] = test system: SETVI Foxtail, Green; assay: Preemergence herbicidal evaluation, SETVI; assay type: in vivo, Setaria viridis, (L.) Beau; details: preemergence
Procedure, shortened: as §1

[13] = test system: IPOHE Morningglory, Ivyleaf; assay: Postemergence herbicidal evaluation, IPOHE; assay type: in vivo, Ipomoea hederacea, (L.) Jacq.; details: postemergence spray, rated about two-three weeks after treatment
Procedure, shortened: as §2

[14] = test system: AMBEL Ragweed, Common; assay: Preemergence herbicidal evaluation, AMBEL; assay type: in vivo, Ambrosia artemisifolia, L.; details: preemergence
Procedure, shortened: as §1

[15] = test system: SETVI Foxtail, Green; assay: Postemergence herbicidal evaluation, SETVI; assay type: in vivo, Setaria viridis, (L.) Beau; details: postemergence spray, rated about two-three weeks after treatment
Procedure, shortened: as §2

[16] = test system: GALAP Galium; assay: Postemergence herbicidal evaluation, GALAP; assay type: in vivo, Galium aparine; details: postemergence spray, rated about two-three weeks after treatment
Procedure, shortened: as §2

[17] = test system: TRZAWR Wheat, Winter, cv Riband; assay: Preemergence herbicidal evaluation, TRZAWR; assay type: in vivo, Triticum aestivum; details: preemergence
Procedure, shortened: as §1

[18] = test system: CHEAL Lambsquarters, Common; assay: Postemergence herbicidal evaluation, CHEAL; assay type: in vivo, Chenopodium album, L.; details: postemergence spray, rated about two-three weeks after treatment
Procedure, shortened: as §2

[19] = test system: ECHOG Barnyardgrass; assay: Postemergence herbicidal evaluation, ECHOG; assay type: in vivo, Echinochloa crus-galli, (L.) Beau; details: postemergence spray, rated about two-three weeks after treatment
Procedure, shortened: as §2

[20] = test system: GALAP Galium; assay: Preemergence herbicidal evaluation, GALAP; assay type: in vivo, Galium aparine; details: preemergence
Procedure, shortened: as §1

[21] = test system: ORYSAT Rice, Tebonnet; assay: Preemergence herbicidal evaluation, ORYSAT; assay type: in vivo, Oryza sativa, (L.); details: preemergence
Procedure, shortened: as §1

[22] = test system: AMBEL Ragweed, Common; assay: Postemergence herbicidal evaluation, AMBEL; assay type: in vivo, Ambrosia artemisifolia, L.; details: postemergence spray, rated about two-three weeks after treatment
Procedure, shortened: as §2

[23] = test system: ORYSAT Rice, Tebonnet; assay: Postemergence herbicidal evaluation, ORYSAT; assay type: in vivo, Oryza sativa, (L.); details: postemergence spray, rated about two-three weeks after treatment
Procedure, shortened: as §2

[24] = test system: ABUTH Velvetleaf; assay: Postemergence herbicidal evaluation, ABUTH; assay type: in vivo, Abutilon theophrasti, Medic.; details: postemergence spray, rated about two-three weeks after treatment
Procedure, shortened: as §2

CCc1ccc(-n2nnc3cc(F)c(-n4c(=O)cc(C(F)(F)F)n(C)c4=O)cc32)cc1COC [Example 28]
3.5: Postemergence herbicidal rating ZEAMX ([3]; 0.008 kg/ha)
7.0: ECHCG herbicidal rating ([5]; rate 0.125 kg/ha) | AMBEL herbicidal rating ([14]; rate 0.125 kg/ha) | Postemergence herbicidal rating SETVI ([15]; 0.032 kg/ha) | Postemergence herbicidal rating CHEAL ([18]; 0.032 kg/ha)
0.5: Postemergence herbicidal rating ORYSAT ([23]; 0.008 kg/ha)
2.5: Postemergence herbicidal rating TRZAWR ([10]; 0.008 kg/ha)
7.5: Postemergence herbicidal rating ZEAMX ([3]; 0.062 kg/ha)
3.0: CHEAL herbicidal rating ([1]; rate 0.016 kg/ha) | Postemergence herbicidal rating CASOB ([6]; 0.062 kg/ha) | ZEAMX herbicidal rating ([8]; rate 0.032 kg/ha) | Postemergence herbicidal rating SETVI ([15]; 0.016 kg/ha) | Postemergence herbicidal rating ORYSAT ([23]; 0.032 kg/ha)
9.0: CHEAL herbicidal rating ([1]; rate 0.032 kg/ha) | CHEAL herbicidal rating ([1]; rate 0.062 kg/ha) | CHEAL herbicidal rating ([1]; rate 0.125 kg/ha) | ABUTH herbicidal rating ([7]; rate 0.062 kg/ha) | ABUTH herbicidal rating ([7]; rate 0.125 kg/ha) | SETVI herbicidal rating ([12]; rate 0.125 kg/ha) | Postemergence herbicidal rating IPOHE ([13]; 0.008 kg/ha) | Postemergence herbicidal rating IPOHE ([13]; 0.016 kg/ha) | Postemergence herbicidal rating IPOHE ([13]; 0.032 kg/ha) | Postemergence herbicidal rating IPOHE ([13]; 0.062 kg/ha) | Postemergence herbicidal rating SETVI ([15]; 0.062 kg/ha) | Postemergence herbicidal rating CHEAL ([18]; 0.062 kg/ha) | GALAP herbicidal rating ([20]; rate 0.125 kg/ha) | Postemergence herbicidal rating AMBEL ([22]; 0.008 kg/ha) | Postemergence herbicidal rating AMBEL ([22]; 0.016 kg/ha) | Postemergence herbicidal rating AMBEL ([22]; 0.032 kg/ha) | Postemergence herbicidal rating AMBEL ([22]; 0.062 kg/ha) | Postemergence herbicidal rating ABUTH ([24]; 0.008 kg/ha) | Postemergence herbicidal rating ABUTH ([24]; 0.016 kg/ha) | Postemergence herbicidal rating ABUTH ([24]; 0.032 kg/ha) | Postemergence herbicidal rating ABUTH ([24]; 0.062 kg/ha)
8.0: Postemergence herbicidal rating GALAP ([16]; 0.062 kg/ha)
2.0: ABUTH herbicidal rating ([7]; rate 0.032 kg/ha) | SETVI herbicidal rating ([12]; rate 0.032 kg/ha) | Postemergence herbicidal rating CHEAL ([18]; 0.008 kg/ha) | Postemergence herbicidal rating ORYSAT ([23]; 0.016 kg/ha)
1.0: IPOHE herbicidal rating ([4]; rate 0.062 kg/ha) | IPOHE herbicidal rating ([4]; rate 0.125 kg/ha) | Postemergence herbicidal rating CASOB ([6]; 0.032 kg/ha) | AMBEL herbicidal rating ([14]; rate 0.062 kg/ha) | Postemergence herbicidal rating ECHCG ([19]; 0.032 kg/ha) | Postemergence herbicidal rating ECHCG ([19]; 0.062 kg/ha)
5.0: ZEAMX herbicidal rating ([8]; rate 0.125 kg/ha) | Postemergence herbicidal rating GLXMAW ([9]; 0.016 kg/ha)
4.0: ZEAMX herbicidal rating ([8]; rate 0.062 kg/ha) | Postemergence herbicidal rating GLXMAW ([9]; 0.008 kg/ha) | SETVI herbicidal rating ([12]; rate 0.062 kg/ha) | Postemergence herbicidal rating GALAP ([16]; 0.008 kg/ha) | Postemergence herbicidal rating GALAP ([16]; 0.016 kg/ha) | Postemergence herbicidal rating CHEAL ([18]; 0.016 kg/ha)
5.5: Postemergence herbicidal rating TRZAWR ([10]; 0.062 kg/ha) | Postemergence herbicidal rating ORYSAT ([23]; 0.062 kg/ha)
6.5: Postemergence herbicidal rating GLXMAW ([9]; 0.062 kg/ha)
6.0: Postemergence herbicidal rating ZEAMX ([3]; 0.016 kg/ha) | Postemergence herbicidal rating ZEAMX ([3]; 0.032 kg/ha) | Postemergence herbicidal rating GLXMAW ([9]; 0.032 kg/ha) | Postemergence herbicidal rating GALAP ([16]; 0.032 kg/ha)
0.0: CASOB herbicidal rating ([2]; rate 0.016 kg/ha) | CASOB herbicidal rating ([2]; rate 0.032 kg/ha) | CASOB herbicidal rating ([2]; rate 0.062 kg/ha) | IPOHE herbicidal rating ([4]; rate 0.016 kg/ha) | IPOHE herbicidal rating ([4]; rate 0.032 kg/ha) | ECHCG herbicidal rating ([5]; rate 0.016 kg/ha) | ECHCG herbicidal rating ([5]; rate 0.032 kg/ha) | ECHCG herbicidal rating ([5]; rate 0.062 kg/ha) | Postemergence herbicidal rating CASOB ([6]; 0.008 kg/ha) | Postemergence herbicidal rating CASOB ([6]; 0.016 kg/ha) | ZEAMX herbicidal rating ([8]; rate 0.016 kg/ha) | GLXMAW herbicidal rating ([11]; rate 0.016 kg/ha) | GLXMAW herbicidal rating ([11]; rate 0.032 kg/ha) | GLXMAW herbicidal rating ([11]; rate 0.062 kg/ha) | GLXMAW herbicidal rating ([11]; rate 0.125 kg/ha) | SETVI herbicidal rating ([12]; rate 0.016 kg/ha) | AMBEL herbicidal rating ([14]; rate 0.016 kg/ha) | AMBEL herbicidal rating ([14]; rate 0.032 kg/ha) | Postemergence herbicidal rating SETVI ([15]; 0.008 kg/ha) | TRZAWR herbicidal rating ([17]; rate 0.016 kg/ha) | TRZAWR herbicidal rating ([17]; rate 0.032 kg/ha) | TRZAWR herbicidal rating ([17]; rate 0.062 kg/ha) | TRZAWR herbicidal rating ([17]; rate 0.125 kg/ha) | Postemergence herbicidal rating ECHCG ([19]; 0.008 kg/ha) | Postemergence herbicidal rating ECHCG ([19]; 0.016 kg/ha) | GALAP herbicidal rating ([20]; rate 0.016 kg/ha) | GALAP herbicidal rating ([20]; rate 0.032 kg/ha) | GALAP herbicidal rating ([20]; rate 0.062 kg/ha) | ORYSAT herbicidal rating ([21]; rate 0.016 kg/ha) | ORYSAT herbicidal rating ([21]; rate 0.032 kg/ha) | ORYSAT herbicidal rating ([21]; rate 0.062 kg/ha) | ORYSAT herbicidal rating ([21]; rate 0.125 kg/ha)
4.5: Postemergence herbicidal rating TRZAWR ([10]; 0.016 kg/ha) | Postemergence herbicidal rating TRZAWR ([10]; 0.032 kg/ha)
